From patent US5763435A, “Sulfate conjugates of ursodeoxycholic acid, and their beneficial use in inflammatory disorders” (priority 1995, dated 1998)
Where “and” joins values, the source holds several entries; their conditions need not be identical. Equal entries are not always repeated. Entries after “also recorded” stand apart in the source; their conditions may differ.

Columns and labels:
fecal bile acids = experiment: Fecal bile acid excretion after oral administration; type: in vivo, Sprague-Dawley rats; details: for Total fecal bile acid excretion: pooled feces day 4; for Fecal lithocholate/deoxycholate ratio (in words) / Fecal lithocholic acid excretion (in words): vs control
Protocol: (§1) Male Sprague-Dawley rats (Harlan Sprague-Dawley, Inc., Indianapolis, Ind.), weighing 210-290 g, were maintained on a 12-hour light-dark cycle and fed standard laboratory chow ad libitum for 3 days. The animals were then transferred to metabolic cages in which they were housed individually and fed the same diet. UDCA, UDCA 3-sulfate, UDCA 7-sulfate, and UDCA 3,7-disulfate were administered by gavage at a dose of 250 mg/day for 4 consecutive days. Each group comprised 3-6 rats. Body weights of the animals were measured each day. On day 5, the animals were killed by exsanguination under ether anesthesia. Plasma was collected and frozen at -20° C. The liver was removed, rinsed in normal saline, and flash-frozen in liquid nitrogen. Urine and feces were collected every 24 hours and frozen at -20° C. All animals received humane care in compliance with the "Guide for the Care and Use of Laboratory Animals" prepared by the National Academy of Sciences (National Institutes of Health publication no. 86-23, revised in 1985).
(§2) Intestinal contents were weighed and dissected into small pieces. In each group, feces (100 mg) from all animals were pooled on day 4 of the study and then ground into a fine paste. All samples were sonicated and sequentially refluxed in 80% methanol for 2 hours and chloroform/methanol (1:1) for 1 hour. Samples were taken to dryness, and the dried extracts were resuspended in 80% methanol (20 mL). Fractions of the methanolic extract (1/40 of intestinal contents and 1/20 of feces samples) were removed and the internal standard nordeoxycholic acid (10 μg) was added. This extract was diluted with 0.01 mol/L acetic acid (20 mL) and passed first through a column of Lipidex 1000 (bed size, 4×1 cm; Packard Instrument Co., Groningen, The Netherlands) and then through a Bond-Elut C18, cartridge (Analytichem, Harbor City, Calif.). Bile acids were recovered by elution of the Lipidex 1000 column and the Bond-Elut cartridge with methanol (20 mL and 5 mL, respectively), and the combined extracts were taken to dryness. Unconjugated bile acids were isolated and separated from neutral sterol and conjugated bile acids by lipophilic anion exchange chromatography on diethylaminohydroxypropyl Sephadex LH-20 (Lipidex-DEAP; Package Instrument Co.). Recovery of unconjugated bile acids was achieved by elution with 0.1 mol/L acetic acid in 72% ethanol (7 mL) followed by evaporation of the solvents. Total conjugated bile acids were recovered with 9 mL of 0.3 mol/L acetic acid in 72% ethanol, pH 9.6. Salts were removed by passage through a Bond-Elut C18 cartridge after addition of nordeoxycholic acid (10 μg), and conjugated bile acids were recovered by elution with 5 mL of methanol. Solvolysis was performed in a mixture of methanol (1 mL), distilled tetrahydrofuran (9 mL), and 1 mol/L trifluoracetic acid in dioxane (0.1 mL) and heated to 45° C for 2 hours. After solvolysis, unconjugated bile acids were isolated by chromatography on Lipidex-DEAP. Methyl ester derivatives were prepared by dissolving the sample in methanol (0.3 mL) and reacting with 2.7 mL of freshly distilled ethereal diazomethane. After evaporation of the reagents, the methyl ester derivatives were converted to trimethylsilyl ethers by the addition of […] of Tri-Sil reagent (Pierce Chemicals, Rockford, Ill.). A column of Lipidex 5000 (Packard Instrument Co.) was used to remove derivatizing reagents and to purify the sample.
GC-MS analysis was performed using a Finnigan 4635 mass spectrometer (Finnigan Inc., San Jose, Calif.) that housed an identical gas chromatography column operated under the same conditions. Electron ionization (70 eV) mass spectra were recorded over the mass range of 50-800 daltons by repetitive scanning of the eluting components. […]

[1] = test system: Principal Bile Acids in Jejunum; experiment: Bile acid composition of jejunum after oral administration (GC-MS); type: in vivo, Sprague-Dawley rats; details: for UDCA mass in jejunum / Chenodeoxycholic acid mass in jejunum / Cholic acid mass in jejunum / Cholic acid percent of jejunal bile acids / Deoxycholic acid mass in jejunum / Deoxycholic acid percent of jejunal bile acids / Lithocholic acid mass in jejunum / Lithocholic acid percent of jejunal bile acids / Total bile acid mass in jejunum / UDCA percent of jejunal bile acids / Δ^22-UDCA mass in jejunum / Δ^22-UDCA percent of jejunal bile acids / Δ^22-β-Muricholic acid mass in jejunum / Δ^22-ω-Muricholic acid mass in jejunum / α-Muricholic acid mass in jejunum / β-Muricholic acid mass in jejunum / ω-Muricholic acid mass in jejunum: oral gavage 250 mg/day, 4 days, mean ± SEM; for UDCA mass in jejunum: 24 hours after final dose; for Conjugation pattern of UDCA in jejunum: anion-exchange chromatography
Protocol: as §1, §2
Samples of liver (100 mg) were ground to a fine paste, and bile acids were extracted by reflux and passage through a column of Lipidex 1000 as described above for intestinal contents and feces. Group separation of bile acids, according to their mode of conjugation was achieved by lipophilic anion-exchange chromatography. […]

Compound | Form of UDCA excreted in feces (fecal bile acids) | Increase of fecal lithocholic acid/deoxycholic acid ratio vs normal rat feces (fecal bile acids) | Total fecal bile acid excretion (fecal bile acids) [mg/g feces] | Fecal lithocholate/deoxycholate ratio (in words) (fecal bile acids) | Chenodeoxycholic acid mass in jejunum [1] [mg] | Cholic acid mass in jejunum [1] | Cholic acid percent of jejunal bile acids [1] [%] | Deoxycholic acid mass in jejunum [1] [mg] | Deoxycholic acid percent of jejunal bile acids [1] [%] | Lithocholic acid mass in jejunum [1] [mg] | Lithocholic acid percent of jejunal bile acids [1] [%] | Total bile acid mass in jejunum [1] [mg] | UDCA percent of jejunal bile acids [1] [%] | Δ^22-UDCA mass in jejunum [1] [mg] | Δ^22-UDCA percent of jejunal bile acids [1] [%] | Δ^22-β-Muricholic acid mass in jejunum [1] [mg] | Δ^22-ω-Muricholic acid mass in jejunum [1] [mg] | α-Muricholic acid mass in jejunum [1] [mg] | β-Muricholic acid mass in jejunum [1] [mg] | ω-Muricholic acid mass in jejunum [1] [mg] | also measured
C[C@H](CCC(=O)O)[C@H]1CC[C@H]2[C@@H]3[C@@H](O)C[C@@H]4C[C@H](O)CC[C@]4(C)[C@H]3CC[C@]12C [UDCA, 3 alpha, 7 beta-dihydroxy-5 beta-cholan-24oic acid, reference compound] | almost exclusively found in the unconjugated form | more than 20 fold | 14.85 | markedly increased | 0.98 | 4.68 mg and 4.68 ± 0.65 mg | 16.8 | 1.56 | 5.6 | 0.26 | 1.0 | 27.77 | 35.9 | 4.00 | 14.5 | 0.85 | 0.30 | 0.75 | 4.12 | 0.31 | Fecal deoxycholic acid (in words) (fecal bile acids): increase in deoxycholic acid in the feces; Fecal lithocholic acid excretion (in words) (fecal bile acids): increased markedly from control values; also recorded: large increase in the fecal lithocholic acid concentration; Δ^22 UDCA in jejunum (in words) ([1]; oral): detected in large proportions and amounts; UDCA mass in jejunum [1]: 9.95 mg and 9.95 ± 0.49 mg; Conjugation pattern of UDCA in jejunum ([1]; oral): predominantly glyco- and tauro-UDCA, smaller amounts of unconjugated UDCA, and negligible amounts of sulfated UDCA
C[C@H](CCC(=O)O)[C@H]1CC[C@H]2[C@@H]3[C@@H](O)C[C@@H]4C[C@H](OS(=O)(=O)O)CC[C@]4(C)[C@H]3CC[C@]12C [UDCA-3S, ursodeoxycholic acid 3-sulfate] |  | 11 fold | 10.70 | markedly increased | 0.43 | 8.49 mg | 37.7 | 1.96 | 8.4 | 0.07 | 0.3 | 22.57 | 16.4 | 2.04 | 9.2 | 2.09 | 0.24 | 0.18 | 3.02 | 0.37 | Fecal lithocholic acid excretion (in words) (fecal bile acids): large increase in the fecal lithocholic acid concentration; Δ^22 UDCA in jejunum (in words) ([1]; oral): detected in large proportions and amounts; UDCA mass in jejunum ([1]; listed as UDCA 3-SULFATE): 3.67 mg; UDCA mass in jejunum ([1]; listed as UDCA 3-sulfate): 3.67 ± 0.45 mg; Change in proportion of cholic acid in jejunum (in words) ([1]; oral, vs control): decrease (P=0.05) in the proportion of cholic acid but to a lesser extent than UDCA; Conjugation pattern of UDCA in jejunum ([1]; oral): substantial proportions of amidated UDCA
C[C@H](CCC(=O)O)[C@H]1CC[C@H]2[C@@H]3[C@@H](OS(=O)(=O)O)C[C@@H]4C[C@H](O)CC[C@]4(C)[C@H]3CC[C@]12C [UDCA-7S, ursodeoxycholic acid 7-sulfate] | excreted in feces virtually unchanged |  | 12.65 | no change in the lithocholate/deoxycholate ratio | 0.26 | 15.78 mg | 69.0 | 0.76 | 3.3 | 0.01 | 0.1 | 22.91 | 4.7 | 0.70 | 3.1 | 1.49 | 0.26 | 0.04 | 2.21 | 0.31 | Fecal concentration of total UDCA (in words) (fecal bile acids): markedly greater than that found in the feces of animals administered UDCA or UDCA 3-sulfate; UDCA mass in jejunum ([1]; listed as UDCA 7-SULFATE): 1.09 mg; UDCA mass in jejunum ([1]; listed as UDCA 7-sulfate): 1.09 ± 0.34 mg
C[C@H](CCC(=O)O)[C@H]1CC[C@H]2[C@@H]3[C@@H](OS(=O)(=O)O)C[C@@H]4C[C@H](OS(=O)(=O)O)CC[C@]4(C)[C@H]3CC[C@]12C [UDCA-DS, ursodeoxycholic acid 3,7-disulfate] | excreted in feces virtually unchanged |  | 10.88 | no change in the lithocholate/deoxycholate ratio | 0.12 | 6.78 mg | 66.0 | 0.5 | 5.2 |  | 0 | 10.24 | 2.0 | 0.21 | 2.1 | 0.34 | 0.12 |  | 1.70 | 0.24 | Fecal concentration of total UDCA (in words) (fecal bile acids): markedly greater than that found in the feces of animals administered UDCA or UDCA 3-sulfate; UDCA mass in jejunum ([1]; listed as UDCA 3,7-SULFATE): 0.21 mg; UDCA mass in jejunum ([1]; listed as UDCA 3,7-disulfate): 0.21 ± 0.07 mg
